The record followed here is publication PMC5393024, “Discovery and characterization of natural tropolones as inhibitors of the antibacterial target CapF from Staphylococcus aureus” (Scientific Reports, 2015).

The subject of assay [1] is CapF reconstituted with Zn^2+. Nature of the assay: FluoZin-3 binding competition assay. On the set-up: species or system Staphylococcus aureus. On the procedure: (§1) Figure 3 Binding of 3-isopropenyl-tropolone to CapF requires Zn^2+. CapF (150 μM) reconstituted with Zn^2+ was titrated with 1.65 mM inhibitor in the absence (a) or the presence (b) of 1 mM EDTA. The upper panels correspond to the titration data, and the lower panels to the integrated binding isotherms. (c) Binding competition assay. CapF (1.0 μM) reconstituted with Zn^2+ in the presence of the Zn^2+-sensitive dye FluoZin-3 (1.0 μM) was titrated with 3-isopropenyl-tropolone (λEX = 490 nm; λEM = 520 nm).
Second, the fluorescence of the Zn^2+-specific indicator FluoZin-3[19][20] was examined in the presence of CapF. The signal of FluoZin-3 increases dramatically in the presence of Zn^2+ ions when the metal is accessible to the dye. […] In contrast, the fluorescence of FluoZin-3 with apo-CapF, or with holo-CapF in the presence of 3-isopropenyl-tropolone, was negligible.
Fluorescence measurements were carried out using the Zn^2+-sensitive dye FluoZin-3 (Life Technologies) in a buffer composed of 10 mM HEPES, 150 mM NaCl (pH 7.4) supplemented with 5% (v/v) DMSO at 25 °C. The fluorescence intensities were measured in a plate reader (PHERAstar, BMG Labtech, Durham, NC) with excitation and emission wavelengths set to 490 nm and 520 nm, respectively.
Figure S3. Zn2+ governs the binding of inhibitor to CapF. […]
from ZnCl2) with 1.65 mM 3-isopropenyl-tropolone. (b) Fluorescence of the Zn2+-sensitive dye […]

The subject of assay [2] is apo-CapF (Zn^2+-depleted). The assay can be described thus: ITC binding to Zn2+-depleted CapF (1 mM EDTA). Set-up: species or system Staphylococcus aureus. As to conditions: 150 μM CapF, 1.65 mM inhibitor.
Text: (§2) Because tropolone and its analogs have been described as metal chelators in proteins, we anticipated that binding of the inhibitor to CapF is governed by the Zn^2+ ion present in the cupin domain[12]. To confirm this hypothesis, we performed two different types of experiments. First, we determined the binding properties of 3-isopropenyl-tropolone to apo-CapF (i.e. Zn^2+-depleted CapF) and to holo-CapF (reconstituted with Zn^2+) by isothermal titration calorimetry (ITC). The stoichiometry is consistent with a 1:1 binding model.
as §1
Binding constants and thermodynamic parameters of the interaction between CapF and fragment compounds were determined with an iTC200 instrument (GE Healthcare) at 25 °C. Samples were equilibrated in a buffer composed of 10 mM HEPES (pH 7.4) and 150 mM NaCl supplemented with 5% (v/v) DMSO. CapF at 150–270 μM was titrated with compounds at 0.5–1.65 mM. […]

The subject of the next assay is CapFΔ57-70. The assay can be described thus: DSC thermal stability of CapFΔ57-70. The class given is binding, Staphylococcus aureus. As to conditions: 24 μM protein, 240 μM inhibitor. On the procedure: Thermal stability of CapF was examined by DSC in a ultrasensitive VP-capillary micro-calorimeter (Microcal). Prior to the experiment the protein was equilibrated in a buffer composed of 50 mM HEPES (pH 7.5), 50 mM NaCl and 5% DMSO. The concentration of protein and inhibitor were adjusted to 24 μM and 240 μM, respectively. The samples were heated between 10 and 110 °C at a scan rate of 1 °C/min. Data analysis was carried out with ORIGIN7 using a two-state transition model.
Figure S6. Thermal stability of CapF examined with DSC. (a) CapFΔ57-70, and (b) CapFΔ57-70
in the presence of 3-isopropenyl-tropolone. Concentration of CapF and inhibitor was 24 µM and
240 µM, respectively. Experimental data and fitting curves are represented in black and red lines,
(1 picture or pasted object on this page, not shown here)
For orientation: In DSC, transitions show as peaks or steps in heat flow.

Assay [3] has as its target holo-CapF (reconstituted with Zn^2+) (Staphylococcus aureus, UniProt A0A0H3JP37). Nature of the assay: ITC binding to CapF reconstituted with Zn2+ (holo-CapF).
Text: as §2, §1
Binding constants and thermodynamic parameters of the interaction between CapF and fragment compounds were determined with an iTC200 instrument (GE Healthcare) at 25 °C. Samples were equilibrated in a buffer composed of 10 mM HEPES (pH 7.4) and 150 mM NaCl supplemented with 5% (v/v) DMSO. CapF at 150–270 μM was titrated with compounds at 0.5–1.65 mM. Analysis of the data was performed with ORIGIN7 using a one-site binding model.
Figure S8. Binding isotherms of compounds with CapF as determined by ITC. (a) tropone, (b) 2-Cl-tropone, (c) tropolone, (d) 4-isopropyl-tropolone. Concentration of CapF in the cell was 150 µM, except in panel (a) where it was 270 µM. Concentration of compounds was 1.65 mM, except in panel (a) where it was 0.5 mM. Titrations were performed in an iTC200 instrument at 25 °C.
Data analysis was carried out with ORIGIN.

Assay [4] is described as follows: ITC titration of free Zn2+ in solution. The class given is binding. As to conditions: 150 µM Zn2+ (ZnCl2) titrated with 1.65 mM compound.
Text: as §2
Figure S3. Zn2+ governs the binding of inhibitor to CapF. (a) Titration of 150 µM Zn2+ (prepared
from ZnCl2) with 1.65 mM 3-isopropenyl-tropolone. (b) Fluorescence of the Zn2+-sensitive dye
FluoZin-3 (1.0 µM) in the presence of CapF (1 µM), CapF (1 µM) with 3-isopropenyl-tropolone […]

Molecules are shown by their SMILES.

Sequence of holo-CapF (reconstituted with Zn^2+) (A0A0H3JP37 entry or part of it): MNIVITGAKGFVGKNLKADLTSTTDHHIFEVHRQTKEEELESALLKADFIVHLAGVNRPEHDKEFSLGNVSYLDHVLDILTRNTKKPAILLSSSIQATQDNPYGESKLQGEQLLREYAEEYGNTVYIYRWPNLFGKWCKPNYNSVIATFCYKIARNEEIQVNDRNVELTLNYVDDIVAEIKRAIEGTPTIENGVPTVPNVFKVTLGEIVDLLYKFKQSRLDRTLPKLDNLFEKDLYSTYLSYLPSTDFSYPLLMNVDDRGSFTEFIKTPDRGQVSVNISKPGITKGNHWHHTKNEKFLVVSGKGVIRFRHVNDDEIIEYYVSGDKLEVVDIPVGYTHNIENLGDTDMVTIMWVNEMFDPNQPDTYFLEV

As to `C=C(C)c1ccccc(=O)c1O` [3-isopropenyl-tropolone], in assay [1] (CapF 1.0 μM, FluoZin-3 1.0 μM, 25 °C), the “inflexion point of FluoZin-3 fluorescence signal vs concentration of compound” value was 51 µM. The “fluorescence of FluoZin-3 with holo-CapF in the presence of compound” value in assay [1] (CapF 1 µM, compound 1.0 mM) was “negligible”. Moreover, the “binding to apo-CapF by ITC” value in assay [2] was “does not bind”. Moreover, the “ΔTM (decrease in thermal stability)” value in the assay on CapFΔ57-70 is 6.3 ± 0.2 °C. The same compound had a TM in the assay with CapFΔ57-70 (CapFΔ57-70 alone 60.7 ± 0.1) of 54.4 ± 0.1 °C. Besides, the Kd in assay [3] worked out at 27 ± 12 µM. Besides, in assay [3] (ITC, 25 °C), the “n (binding stoichiometry)” value worked out at 1.2 ± 0.1, the “ΔH°” value is -3.4 ± 0.9 kcal/mol and the “−TΔS°” value is -2.8 ± 1.1 kcal/mol. Further, in assay [3] (from ITC binding free energy), the “ligand efficiency (LE = −ΔG/HAC)” value turned out to be 0.52 kcal/mol. Also, in assay [4], the “binding to free-Zn^2+ in solution by ITC” value was “not detected”.

What is called Kd is the equilibrium constant for the complex coming apart. A high value points to weaker binding.
